The values that follow are results of earlier work, collected in patent US9314447B2 (Lupin Atlantis Holdings, S.A., priority 2012, dated 2016).

For this series the following is noted: in vivo.

As for `CC(C)(Oc1ccc(C(=O)c2ccc(Cl)cc2)cc1)C(=O)O` [Fenofibric acid], the elimination half-life entry is on record as “about 20 hours”.
